# Test results published in PubChem BioAssay (NCI).
#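 Each compound was tested at five concentrations against cells in 96-well plates for 48 hours. GI50 is the concentration that inhibits growth by half. TGI denotes the concentration required for complete inhibition of growth.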
# What was measured:
# Experiment in all cases: NCI anticancer screen, dose series, 48 h
# RXF 393 renal = system: RXF 393 renal
# M14 melanoma = system: M14 melanoma
# SN12C renal = system: SN12C renal
# SF-539 CNS = system: SF-539 CNS
# SW-620 colon = system: SW-620 colon
# IGROV1 ovarian = system: IGROV1 ovarian
# KM12 colon = system: KM12 colon
# 786-0 renal = system: 786-0 renal
# HT29 colon = system: HT29 colon
# SK-MEL-2 melanoma = system: SK-MEL-2 melanoma
# OVCAR-8 ovarian = system: OVCAR-8 ovarian
# HCT-15 colon = system: HCT-15 colon
# OVCAR-4 ovarian = system: OVCAR-4 ovarian
# HL-60(TB) leukemia = system: HL-60(TB) leukemia
# MDA-MB-435 = system: MDA-MB-435
# UO-31 renal = system: UO-31 renal
# NCI-H23 lung = system: NCI-H23 lung
# NCI/ADR-RES ovarian = system: NCI/ADR-RES ovarian
# COLO 205 colon = system: COLO 205 colon
# HOP-62 NSCLC = system: HOP-62 NSCLC
# SF-268 CNS = system: SF-268 CNS
# K-562 leukemia = system: K-562 leukemia
# BT-549 breast = system: BT-549 breast
# TK-10 renal = system: TK-10 renal
# ACHN renal = system: ACHN renal
# MCF7 breast = system: MCF7 breast
# SK-OV-3 ovarian = system: SK-OV-3 ovarian
# LOX IMVI melanoma = system: LOX IMVI melanoma
structure (smiles),measurement,setting,value
CS(=O)(=O)Nc1cc(-c2ccc3ncc(C#N)c(NCc4ccccc4O)c3c2)cnc1Cl,GI50,RXF 393 renal,212 nM
same,TGI,RXF 393 renal,1280 nM
same,GI50,M14 melanoma,532 nM
same,TGI,M14 melanoma,10900 nM
same,GI50,SN12C renal,450 nM
same,TGI,SN12C renal,> 65000 nM
same,GI50,SF-539 CNS,400 nM
same,TGI,SF-539 CNS,3200 nM
same,GI50,SW-620 colon,470 nM
same,TGI,SW-620 colon,6960 nM
same,GI50,IGROV1 ovarian,229 nM
same,TGI,IGROV1 ovarian,1290 nM
same,GI50,KM12 colon,652 nM
same,TGI,KM12 colon,7060 nM
same,GI50,786-0 renal,693 nM
same,TGI,786-0 renal,> 100000 nM
same,GI50,HT29 colon,1090 nM
same,TGI,HT29 colon,8630 nM
same,GI50,SK-MEL-2 melanoma,175 nM
same,TGI,SK-MEL-2 melanoma,554 nM
same,GI50,OVCAR-8 ovarian,718 nM
same,TGI,OVCAR-8 ovarian,16800 nM
same,GI50,HCT-15 colon,516 nM
same,TGI,HCT-15 colon,12000 nM
same,GI50,OVCAR-4 ovarian,468 nM
same,TGI,OVCAR-4 ovarian,6410 nM
same,GI50,HL-60(TB) leukemia,808 nM
same,TGI,HL-60(TB) leukemia,21700 nM
same,GI50,MDA-MB-435,539 nM
same,TGI,MDA-MB-435,9850 nM
same,GI50,UO-31 renal,417 nM
same,TGI,UO-31 renal,> 25900 nM
same,GI50,NCI-H23 lung,600 nM
same,TGI,NCI-H23 lung,15800 nM
same,GI50,NCI/ADR-RES ovarian,3090 nM
same,TGI,NCI/ADR-RES ovarian,> 100000 nM
same,GI50,COLO 205 colon,674 nM
same,TGI,COLO 205 colon,2260 nM
same,GI50,HOP-62 NSCLC,480 nM
same,TGI,HOP-62 NSCLC,13300 nM
same,GI50,SF-268 CNS,248 nM
same,TGI,SF-268 CNS,3120 nM
same,GI50,K-562 leukemia,465 nM
same,TGI,K-562 leukemia,> 100000 nM
same,GI50,BT-549 breast,167 nM
same,TGI,BT-549 breast,1340 nM
same,GI50,TK-10 renal,375 nM
same,TGI,TK-10 renal,3420 nM
same,GI50,ACHN renal,1700 nM
same,TGI,ACHN renal,> 63000 nM
same,GI50,MCF7 breast,288 nM
same,TGI,MCF7 breast,9270 nM
same,GI50,SK-OV-3 ovarian,612 nM
same,TGI,SK-OV-3 ovarian,3680 nM
same,GI50,LOX IMVI melanoma,397 nM
